“And” between values parts separate entries of the source, which are not always exact repeats. Identical values can stand only once. Toxic doses and inconclusive results are not listed. No stated cut-off is given here; in the data, active means T/C of 150% or more; inactive means T/C below 125%.
Tested on: L1210 leukemia ip in BDF1 mice, survival T/C
Assay: NCI In Vivo Anticancer Drug Screen. Data for tumor model L1210 Leukemia (intraperitoneal) in B6D2F1 (BDF1) mice
Settings: endpoint: mean survival time, higher = longer survival
Procedure, shortened: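 Transplanted-tumor mice were given test agent; controls received vehicle only. Survival readings from the two groups were divided (treated over control).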

[1] = dose: 100.0 mg/kg/injection, schedule: Q04DX003 (ip), vehicle: Klucel (hydroxypropylcellulose) (HPC)
[2] = dose: 200.0 mg/kg/injection, schedule: Q04DX003 (ip), vehicle: Klucel (hydroxypropylcellulose) (HPC)
[3] = dose: 400.0 mg/kg/injection, schedule: Q04DX003 (ip), vehicle: Klucel (hydroxypropylcellulose) (HPC)
[4] = dose: 100.0 mg/kg/injection, schedule: Q01DX001 (ip), vehicle: saline
[5] = dose: 200.0 mg/kg/injection, schedule: Q01DX001 (ip), vehicle: saline
[6] = dose: 100.0 mg/kg/injection, schedule: Q04DX002 (ip), vehicle: Klucel (hydroxypropylcellulose) (HPC)
[7] = dose: 200.0 mg/kg/injection, schedule: Q04DX002 (ip), vehicle: Klucel (hydroxypropylcellulose) (HPC)
[8] = dose: 400.0 mg/kg/injection, schedule: Q04DX002 (ip), vehicle: Klucel (hydroxypropylcellulose) (HPC)
[9] = dose: 100.0 mg/kg/injection, schedule: Q01DX001 (ip), vehicle: carboxymethylcellulose (CMC)
[10] = dose: 200.0 mg/kg/injection, schedule: Q01DX001 (ip), vehicle: carboxymethylcellulose (CMC)
[11] = dose: 400.0 mg/kg/injection, schedule: Q01DX001 (ip), vehicle: carboxymethylcellulose (CMC)
[12] = dose: 100.0 mg/kg/injection, schedule: Q04DX003 (ip), vehicle: saline with Tween-80
[13] = dose: 200.0 mg/kg/injection, schedule: Q04DX003 (ip), vehicle: saline with Tween-80
[14] = dose: 400.0 mg/kg/injection, schedule: Q04DX003 (ip), vehicle: saline with Tween-80
[15] = dose: 100.0 mg/kg/injection, schedule: Q04DX003 (ip), vehicle: saline
[16] = dose: 200.0 mg/kg/injection, schedule: Q04DX003 (ip), vehicle: saline
[17] = dose: 400.0 mg/kg/injection, schedule: Q04DX003 (ip), vehicle: saline
[18] = dose: 100.0 mg/kg/injection, schedule: Q01DX009 (ip), vehicle: saline
[19] = dose: 200.0 mg/kg/injection, schedule: Q01DX009 (ip), vehicle: saline
[20] = dose: 50.0 mg/kg/injection, schedule: Q01DX001 (ip), vehicle: carboxymethylcellulose (CMC)

Measured: T/C

O=C(NCCCl)NC1CCC2CCCCC2C1 (stereo not given)
inactive: dose: 100.0 mg/kg/injection, schedule: Q01DX001 (ip), vehicle: Klucel (hydroxypropylcellulose) (HPC) 100 % of control | [1] 92 % of control | dose: 200.0 mg/kg/injection, schedule: Q01DX001 (ip), vehicle: Klucel (hydroxypropylcellulose) (HPC) 102 % of control | [2] 97 % of control | dose: 400.0 mg/kg/injection, schedule: Q01DX001 (ip), vehicle: Klucel (hydroxypropylcellulose) (HPC) 92 % of control | [3] 97 % of control

O=c1cc(C2CCCCC2)c2ccccc2[nH]1
inactive: dose: 100.0 mg/kg/injection, schedule: Q04DX003 (ip), vehicle: gum acacia 91 % of control | dose: 200.0 mg/kg/injection, schedule: Q04DX003 (ip), vehicle: gum acacia 97 % of control | dose: 400.0 mg/kg/injection, schedule: Q04DX003 (ip), vehicle: gum acacia 91 % of control

Cc1ccc(S(=O)(=O)OC2C(O)C(CO)OC2n2c(Br)c(C(N)=O)c3c(N)ncnc32)cc1 (stereo not given)
inactive: dose: 25.0 mg/kg/injection, schedule: Q01DX009 (ip), vehicle: water 100 % of control | dose: 50.0 mg/kg/injection, schedule: Q01DX009 (ip), vehicle: water 97 % of control | dose: 100.0 mg/kg/injection, schedule: Q01DX009 (ip), vehicle: water 95 % of control | dose: 200.0 mg/kg/injection, schedule: Q01DX009 (ip), vehicle: water 93 % of control

O=C(COc1ccc(Cl)c(Cl)c1)Nc1ccc[n+](Cc2c(Cl)cccc2S(=O)(=O)F)c1
inactive: [4] 88 % of control | [5] 101 % of control

CC1CN=C(c2ccc(O)c(O)c2O)S1 (stereo not given)
inactive: dose: 75.0 mg/kg/injection, schedule: Q04DX002 (ip), vehicle: saline with Tween-80 101 % of control | dose: 150.0 mg/kg/injection, schedule: Q04DX002 (ip), vehicle: saline with Tween-80 101 % of control | dose: 300.0 mg/kg/injection, schedule: Q04DX002 (ip), vehicle: saline with Tween-80 93 % of control

O=[N+]([O-])c1ccc(Oc2ccc(Br)cc2)c([N+](=O)[O-])c1
inactive: [6] 103 % of control | [7] 93 % of control | [8] 97 % of control

C=Cc1cc[n+](Cc2ccc(C[n+]3ccc(C=C)cc3)cc2)cc1
inactive: [9] 91 % of control | [10] 91 % of control | [11] 87 % of control

COC(CC(=O)N1Cc2cc3ccccc3nc2/C1=C/c1ccco1)OC
inactive: [12] 104 % of control | [13] 96 % of control | [14] 98 % of control

Cc1ccc([N+](=O)[O-])cc1NC(=O)Sc1ccc(C(C)(C)C)cc1
inactive: [1] 98 % of control | [2] 98 % of control | [3] 98 % of control

COc1cccc(/C=C(/SC)S(C)=O)c1OC (stereo not given)
inactive: [15] 105 % of control | [16] 106 % of control | [17] 102 % of control

Cc1cccc(NC(=O)NCCCl)c1
inactive: dose: 100.0 mg/kg/injection, schedule: Q01DX001 (ip), vehicle: other 97 % of control | dose: 100.0 mg/kg/injection, schedule: Q01DX009 (ip), vehicle: Klucel (hydroxypropylcellulose) (HPC) 95 % of control | [6] 102 % of control | dose: 200.0 mg/kg/injection, schedule: Q01DX001 (ip), vehicle: other 105 % of control | dose: 200.0 mg/kg/injection, schedule: Q01DX009 (ip), vehicle: Klucel (hydroxypropylcellulose) (HPC) 92 % of control | [7] 113 % of control | dose: 400.0 mg/kg/injection, schedule: Q01DX001 (ip), vehicle: other 97 % of control | dose: 400.0 mg/kg/injection, schedule: Q01DX009 (ip), vehicle: Klucel (hydroxypropylcellulose) (HPC) 92 % of control | [8] 102 % of control

O=[N+]([O-])c1cccc(S(=O)(=O)Nc2cccc(C(F)(F)F)c2)c1
inactive: [18] 96 % of control | [19] 104 % of control | dose: 400.0 mg/kg/injection, schedule: Q01DX009 (ip), vehicle: saline 96 % of control

CCCCCCCCCCCCC(O)(CC)C(=O)O (stereo not given)
inactive: [6] 98 % of control | [7] 91 % of control | [8] 91 % of control

Nc1ccc(N=Nc2ccccc2)c(N)n1
inactive: [1] 89 % of control | [15] 97 % of control | [2] 90 % of control

CC(C)CNCc1cc(Nc2ccnc3cc(Cl)ccc23)ccc1O
inactive: dose: 100.0 mg/kg/injection, schedule: Q04DX002 (ip), vehicle: saline 94 % of control | dose: 200.0 mg/kg/injection, schedule: Q04DX002 (ip), vehicle: saline 98 % of control

CCOC(=O)C1(CCC#N)CC(C#N)(c2ccccc2)CCC1=O (stereo not given)
inactive: dose: 100.0 mg/kg/injection, schedule: Q04DX003 (ip), vehicle: acetone 98 % of control | dose: 200.0 mg/kg/injection, schedule: Q04DX003 (ip), vehicle: acetone 90 % of control | dose: 400.0 mg/kg/injection, schedule: Q04DX003 (ip), vehicle: acetone 93 % of control

NC(N)=Nc1ccc(NC(=O)c2ccc(C(=O)Nc3ccc(N=C(N)N)cc3)cc2)cc1
inactive: dose: 1.8 mg/kg/injection, schedule: Q01DX Z (ip), vehicle: carboxymethylcellulose (CMC) 122 % of control | dose: 3.7 mg/kg/injection, schedule: Q01DX Z (ip), vehicle: carboxymethylcellulose (CMC) 104 % of control | dose: 7.5 mg/kg/injection, schedule: Q01DX Z (ip), vehicle: carboxymethylcellulose (CMC) 88 % of control

C[N+](C)(C)CCOc1ccc([N+](=O)[O-])cc1
inactive: dose: 50.0 mg/kg/injection, schedule: Q01DX001 (ip), vehicle: saline 95 % of control | [4] 104 % of control | [5] 92 % of control

CC(C)(C)NC(=O)CCC(CC(=O)NC(C)(C)C)S(=O)(=O)O (stereo not given)
inactive: dose: 50.0 mg/kg/injection, schedule: Q01DX009 (ip), vehicle: saline 97 % of control | [18] 97 % of control | [15] 98 % of control | [19] 90 % of control | [16] 95 % of control

CC(=O)OC12C3CCCC1CCCC2CCC3 (stereo not given)
inactive: [1] 109 % of control | [2] 93 % of control | [3] 93 % of control

NC(=O)c1cc(C(N)=O)c(N)nc1N
inactive: [1] 100 % of control | [2] 97 % of control | [3] 94 % of control

O=C(O)/C(Br)=C(\Br)c1ccccc1
inactive: dose: 100.0 mg/kg/injection, schedule: Q01DX009 (ip), vehicle: saline with Tween-80 101 % of control | dose: 200.0 mg/kg/injection, schedule: Q01DX009 (ip), vehicle: saline with Tween-80 92 % of control | dose: 400.0 mg/kg/injection, schedule: Q01DX009 (ip), vehicle: saline with Tween-80 95 % of control

Nc1ncnc2c(C3OC(CO)C(O)C3O)[nH]nc12 (stereo not given)
inactive: dose: 5.0 mg/kg/injection, schedule: Q01DX015 (ip), vehicle: carboxymethylcellulose (CMC) 95 % of control | dose: 10.0 mg/kg/injection, schedule: Q01DX015 (ip), vehicle: carboxymethylcellulose (CMC) 109 % of control | dose: 12.5 mg/kg/injection, schedule: Q01DX009 (ip), vehicle: saline with Tween-80 119 % of control | dose: 20.0 mg/kg/injection, schedule: Q01DX015 (ip), vehicle: carboxymethylcellulose (CMC) 111 % of control | dose: 25.0 mg/kg/injection, schedule: Q01DX009 (ip), vehicle: saline with Tween-80 98 % of control | [20] 109 % of control | [9] 111 % of control | [4] 108 % of control | [12] 114 % of control | dose: 133.0 mg/kg/injection, schedule: Q04DX003 (ip), vehicle: saline with Tween-80 100 % of control and 117 % of control | [10] 115 % of control | [13] 111 % of control | dose: 300.0 mg/kg/injection, schedule: Q04DX003 (ip), vehicle: saline with Tween-80 88 % of control

O=S1(=O)c2ccccc2NC(c2ccc(Cl)cc2)C1c1ccccc1 (stereo not given)
inactive: [15] 95 % of control | [16] 89 % of control | [17] 97 % of control

CCCCCC(CN(C)C)C(/C=C/c1ccccc1Cl)OC(=O)c1ccc([N+](=O)[O-])cc1 (stereo not given)
inactive: [12] 95 % of control | [13] 92 % of control | [14] 92 % of control

CC(C)CC(C)OB(OC(C)CC(C)C)OC(C)CC(C)C (stereo not given)
inactive: [20] 102 % of control | [9] 111 % of control | [10] 102 % of control | [11] 96 % of control

CC1(C[N+](=O)[O-])CCCC(=O)C1 (stereo not given)
inactive: dose: 75.0 mg/kg/injection, schedule: Q01DX001 (ip), vehicle: saline 98 % of control

Source: PubChem BioAssay AID248 (DTP/NCI, 2004)
